Results from article PMC2678238 (Journal of biological inorganic chemistry : JBIC : a …, 2009).
Read-outs that look alike come from different tables or passages of the source.

Columns and labels:
Co(II)-loaded PfMetAP-II [1] = molecular target: T1, Co(II)-loaded PfMetAP-II (Pyrococcus furiosus, UniProt P56218); experiment: Enzymatic assay of MetAP; format: biochemical
Co(II)-loaded EcMetAP-I [2] = molecular target: T2, Co(II)-loaded EcMetAP-I (Escherichia coli, UniProt P0AE18); experiment: Enzymatic assay of MetAP; format: biochemical
Co(II)-loaded PfMetAP-II [3] = molecular target: T1, Co(II)-loaded PfMetAP-II; experiment: Isothermal titration calorimetry; format: binding; settings: for n (stoichiometry): ITC fit; for TΔS / ΔG: from ITC via Gibbs relationship
Mn(II)-loaded PfMetAP-II [4] = molecular target: T3, Mn(II)-loaded PfMetAP-II (Pyrococcus furiosus, UniProt P56218); experiment: Isothermal titration calorimetry; format: binding; settings: for fold stronger binding (Kd) to Co(II)-loaded than Mn(II)-loaded PfMetAP-II: ITC Kd Mn(II)-loaded vs Co(II)-loaded PfMetAP-II; for n (stoichiometry): ITC fit
Co(II)-loaded EcMetAP-I [5] = molecular target: T2, Co(II)-loaded EcMetAP-I; experiment: Isothermal titration calorimetry; format: binding; settings: for n (stoichiometry): ITC fit; for TΔS / ΔG: from ITC via Gibbs relationship
Mn(II)-loaded EcMetAP-I [6] = molecular target: T4, Mn(II)-loaded EcMetAP-I (Escherichia coli, UniProt P0AE18); experiment: Isothermal titration calorimetry; format: binding; settings: for fold stronger binding (Kd) to Co(II)-loaded than Mn(II)-loaded EcMetAP-I: ITC Kd Mn(II)-loaded vs Co(II)-loaded EcMetAP-I; for n (stoichiometry): ITC fit
Co(II)-loaded HsMetAP-II = settings: in words; cited from earlier work
Mn(II)-loaded HsMetAP-II = settings: in words; cited from earlier work
Mn(II)-loaded PfMetAP-II [7] = molecular target: T3, Mn(II)-loaded PfMetAP-II; experiment: Enzymatic assay of MetAP; format: biochemical
Mn(II)-loaded EcMetAP-I [8] = molecular target: T4, Mn(II)-loaded EcMetAP-I; experiment: Enzymatic assay of MetAP; format: biochemical
[9] = [MnMn(PfMetAP-II)], from ITC via Gibbs relationship
[10] = [MnMn(EcMetAP-I)], from ITC via Gibbs relationship

T1 sequence (P56218 whole entry): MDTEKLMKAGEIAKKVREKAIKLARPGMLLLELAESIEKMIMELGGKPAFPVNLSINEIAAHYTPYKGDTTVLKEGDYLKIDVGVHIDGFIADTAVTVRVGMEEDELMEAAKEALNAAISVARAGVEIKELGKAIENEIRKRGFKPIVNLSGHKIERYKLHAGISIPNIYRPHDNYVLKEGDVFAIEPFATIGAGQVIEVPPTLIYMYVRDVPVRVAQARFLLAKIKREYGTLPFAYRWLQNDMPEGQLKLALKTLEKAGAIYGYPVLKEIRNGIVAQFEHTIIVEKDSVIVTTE
T3 sequence (P56218 whole entry): as above
T2 sequence (P0AE18 whole entry): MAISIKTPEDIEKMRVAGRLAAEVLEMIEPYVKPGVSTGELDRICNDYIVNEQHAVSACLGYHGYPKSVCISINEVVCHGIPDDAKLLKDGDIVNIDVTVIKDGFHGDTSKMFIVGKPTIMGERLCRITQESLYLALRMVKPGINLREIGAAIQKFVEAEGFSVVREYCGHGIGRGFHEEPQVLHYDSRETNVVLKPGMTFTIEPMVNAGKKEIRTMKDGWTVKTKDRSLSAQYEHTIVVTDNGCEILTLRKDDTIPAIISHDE
T4 sequence (P0AE18 whole entry): as above

SMILES | n (stoichiometry) (Co(II)-loaded PfMetAP-II [3]; [CoCo(PfMetAP-II)]) | TΔS (Co(II)-loaded PfMetAP-II [3]; [CoCo(PfMetAP-II)]) [kcal/mol] | ΔG (Co(II)-loaded PfMetAP-II [3]; [CoCo(PfMetAP-II)]) [kcal/mol] | fold stronger binding (Kd) to Co(II)-loaded than Mn(II)-loaded PfMetAP-II (Mn(II)-loaded PfMetAP-II [4]) | n (stoichiometry) (Mn(II)-loaded PfMetAP-II [4]; [MnMn(PfMetAP-II)]) | ΔG (Mn(II)-loaded PfMetAP-II [4]; [9]) [kcal/mol] | n (stoichiometry) (Co(II)-loaded EcMetAP-I [5]; [CoCo(EcMetAP-I)]) | TΔS (Co(II)-loaded EcMetAP-I [5]; [CoCo(EcMetAP-I)]) [kcal/mol] | ΔG (Co(II)-loaded EcMetAP-I [5]; [CoCo(EcMetAP-I)]) [kcal/mol] | fold stronger binding (Kd) to Co(II)-loaded than Mn(II)-loaded EcMetAP-I (Mn(II)-loaded EcMetAP-I [6]) | n (stoichiometry) (Mn(II)-loaded EcMetAP-I [6]; [MnMn(EcMetAP-I)]) | ΔG (Mn(II)-loaded EcMetAP-I [6]; [10]) [kcal/mol] | inhibition of Co(II)-loaded HsMetAP-II (Co(II)-loaded HsMetAP-II) | also measured
CCSCC[C@@H](N)C(O)C(=O)N[C@@H](C)c1cccc2ccccc12 (mixture of isomers) [A-311263, ((2RS,3R)-3-amino-2-hydroxy-5-ethylthio)pentanoyl-((S)-(−)-(1-naphthyl)ethyl)amide] | 1 | 5.02 | -8.65 | approximately 58 fold | 1 | -6.24 | 1 | 7.89 | -7.65 | approximately 21 fold | 1 | -5.86 | equally well | Ki (Co(II)-loaded PfMetAP-II [1]; [CoCo(PfMetAP-II)], competitive inhibition fit, substrate MGMM): 2 µM; Ki (Co(II)-loaded EcMetAP-I [2]; [CoCo(EcMetAP-I)], competitive inhibition fit, substrate MGMM): 3 µM; Kd (Co(II)-loaded PfMetAP-II [3]; [CoCo(PfMetAP-II)], ITC, 25.0 °C, HEPES pH 7.5): 0.45 ± 0.11 µM; Kd (Mn(II)-loaded PfMetAP-II [4]; [MnMn(PfMetAP-II)], ITC, 25.0 °C, HEPES pH 7.5): 26 ± 5 µM; Kd (Co(II)-loaded EcMetAP-I [5]; [CoCo(EcMetAP-I)], ITC, 25.0 °C, HEPES pH 7.5): 2.4 ± 0.1 µM; Kd (Mn(II)-loaded EcMetAP-I [6]; [MnMn(EcMetAP-I)], ITC, 25.0 °C, HEPES pH 7.5): 50 ± 5 µM; TΔS (Mn(II)-loaded EcMetAP-I [6]; [10]): 1.4 kcal/mol; inhibition of Mn(II)-loaded HsMetAP-II (Mn(II)-loaded HsMetAP-II): equally well
c1ccc2cc(CSc3nnc[nH]3)ccc2c1 [A-310840, 3-((2-naphthylmethyl)sulfanyl)-4H-1,2,4-triazole] | 1 | 6.45 | -7.77 | approximately 333 fold | 1 | -4.33 | 1 | 4.78 | -6.81 | approximately 71 fold | 1 | -4.28 | strongly inhibits | IC50 (Co(II)-loaded PfMetAP-II [1]): 15 µM; Ki (Co(II)-loaded PfMetAP-II [1]): 3 µM; IC50 (Mn(II)-loaded PfMetAP-II [7]): 1000 µM; Ki (Mn(II)-loaded PfMetAP-II [7]): 440 µM; fold less potent (IC50) for Mn(II)-loaded than Co(II)-loaded PfMetAP-II (Mn(II)-loaded PfMetAP-II [7]; IC50 Mn(II)-loaded vs Co(II)-loaded PfMetAP-II): approximately 67 fold; IC50 (Co(II)-loaded EcMetAP-I [2]): 44 µM; Ki (Co(II)-loaded EcMetAP-I [2]): 8 µM; IC50 (Mn(II)-loaded EcMetAP-I [8]): 1000 µM; Ki (Mn(II)-loaded EcMetAP-I [8]): 750 µM; fold less potent (IC50) for Mn(II)-loaded than Co(II)-loaded EcMetAP-I (Mn(II)-loaded EcMetAP-I [8]; IC50 Mn(II)-loaded vs Co(II)-loaded EcMetAP-I): approximately 23 fold; Kd (Co(II)-loaded PfMetAP-II [3]): 2 ± 0.1 µM; Kd (Mn(II)-loaded PfMetAP-II [4]): 666 ± 10 µM; TΔS (Mn(II)-loaded PfMetAP-II [4]; [9]): 4.06 kcal/mol; Kd (Co(II)-loaded EcMetAP-I [5]): 10 ± 0.1 µM; Kd (Mn(II)-loaded EcMetAP-I [6]): 714 ± 10 µM
